# How the values were obtained:
# STAT5 A/B [pTyr694/699] [1] = test: LanthaScreen STAT5 TF-1 Activator Screen, GM-CSF Stimulation; assay type: cell-based; details: cell supernatant
# Method: A functional cell-based assay was performed in order to determine the biological activity of the GM-CSF produced by the MVX-1 cell line. Two samples of the cell supernatant containing the produced GM-CSF were tested in duplicate using the LanthaScreen™ Cellular Assay (ThermoFisher Scientific), which uses time-resolved resonance energy transfer (TR-FRET) between a terbium-labeled phosphorylation-site specific antibody (PSSA) and a green fluorescent protein (GFP fusion of a particular kinase substrate to provide an assay readout that is ratiometric, robust, and amenable to high-throughput screening (HTS) applications. The use of a GFP fusion of the target along with a single detection antibody simplifies the assay protocol, eliminates the need for beads or additional reagents, and simplifies the assay relative to other two-antibody “sandwich” approaches.
# 1. 32 μL of cells diluted in Assay Media to appropriate cell density are added to the assay plate. […]
# 4. The assay plate is incubated at 37° C./5% CO2 in a humidified incubator for a pre-determined length of time (cell line/assay specific).
# 5. Cells are lysed by the addition of lysis buffer with a pre-determined concentration of Tb-labeled Ab (assay specific).
# 6. The assay plates are incubated in the dark at room temperature for a pre-determined length of time (assay specific).
# 7. Read plate on a fluorescence plate reader. […]
# STAT5 A/B [pTyr694/699] [2] = details: STAT5 TF-1 cell line, inhibitor mode, GM-CSF stimulation; representative value; cited from earlier work
# STAT5 A/B [pTyr694/699] [3] = details: STAT5 TF-1 cell line, activator mode; representative value; cited from earlier work
substance,measurement,setting,value
GM-CSF produced by the MVX-1 cell line: huGM-CSF in cell supernatant of the genetically modified MVX-1 cell line,results of the functional cell-based assay,STAT5 A/B [pTyr694/699] [1]; two samples in duplicate (FIGS. 7A-D),all positive
same,biological activity compared with commercially available GM-CSF,"STAT5 A/B [pTyr694/699] [1]; two samples in duplicate, within the limitations of the assay",equivalent to commercially available GM-CSF
JAK Inhibitor I,IC50,STAT5 A/B [pTyr694/699] [2],37.3 nM
granulocyte macrophage-colony stimulating factor [GM-CSF],EC50,STAT5 A/B [pTyr694/699] [3],0.003 nM

# Source: patent US9861689B2, “Vaccination with immuno-isolated cells producing an immunomodulator” (MaxiVAX SA, priority 2015, dated 2018)
